The source of these data is publication PMC6920844, “Mechanism of Action and Interactions between Thyroid Peroxidase and Lipoxygenase Inhibitors Derived from Plant Sources” (Biomolecules, 2019).

Structures are written as SMILES. Marks after values point to notes of the source that are not given here.

Experiment [1] has as its target T1, thyroid peroxidase (TPO) (Sus scrofa, UniProt P09933).
T1 sequence (P09933 15-926): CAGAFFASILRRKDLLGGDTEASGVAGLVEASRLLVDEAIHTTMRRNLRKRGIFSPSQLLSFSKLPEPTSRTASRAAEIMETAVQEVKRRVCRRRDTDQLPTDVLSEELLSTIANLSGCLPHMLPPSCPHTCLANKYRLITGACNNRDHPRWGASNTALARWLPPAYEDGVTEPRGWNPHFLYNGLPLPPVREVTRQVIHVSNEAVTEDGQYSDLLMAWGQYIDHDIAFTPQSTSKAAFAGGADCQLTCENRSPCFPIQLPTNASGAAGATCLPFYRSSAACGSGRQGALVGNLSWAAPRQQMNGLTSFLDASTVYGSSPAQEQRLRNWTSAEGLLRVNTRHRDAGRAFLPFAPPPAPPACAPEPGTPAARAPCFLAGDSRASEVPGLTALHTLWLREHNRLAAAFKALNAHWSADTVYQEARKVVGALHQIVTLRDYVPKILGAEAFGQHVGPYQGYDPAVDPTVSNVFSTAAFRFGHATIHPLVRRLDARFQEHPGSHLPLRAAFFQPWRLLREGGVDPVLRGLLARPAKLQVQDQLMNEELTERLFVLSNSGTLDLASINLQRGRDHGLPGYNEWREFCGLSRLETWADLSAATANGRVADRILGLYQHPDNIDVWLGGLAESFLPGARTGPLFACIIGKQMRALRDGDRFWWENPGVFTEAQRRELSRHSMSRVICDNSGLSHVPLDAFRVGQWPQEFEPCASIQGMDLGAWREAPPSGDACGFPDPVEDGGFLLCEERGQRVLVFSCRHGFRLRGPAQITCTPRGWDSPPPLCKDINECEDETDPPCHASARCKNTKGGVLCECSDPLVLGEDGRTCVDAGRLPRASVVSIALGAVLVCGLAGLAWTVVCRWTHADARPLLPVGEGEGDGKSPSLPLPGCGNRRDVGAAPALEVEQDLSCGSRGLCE
In words: Thyroid peroxidase inhibitory assay (guaiacol assay, Lineweaver–Burk plot). The settings on record: for EFC50 (effective concentration inhibiting TPO in 50%) / Ki (TPO) / Vmax (TPO) / Mode of Inhibition (TPO): pure polyphenol solutions; for Mode of Inhibition (TPO): Lineweaver–Burk.

The nature of experiment [2]: ABTS radical scavenging activity (in vitro antioxidant capacity assay).
Method: The ABTS radical scavenging activity was determined according to Re et al. [19], with some modifications. A 250 µL ABTS solution was mixed with 10 µL of each pure polyphenols solutions (concentration 50 µg/mL), ethanol extracts, and digested extracts (concentrations: 0.3 mg/mL), and then was measured at the wavelength 724 nm using a UV/Vis spectrophotometer (BioTek, Model Epoch2TC, Winooski, VT, USA) after 15 min of incubation at room temperature. The inhibition percentage of ABTS discoloration was calculated using the fallowing equation:AA = [(Ac − Ap)/(Ac)] × 100%(1) where Ac is the absorbance of control, Ap is the absorbance of pure polyphenols solutions
Where [3] appears, read: pure polyphenols, values in text.

`COc1cc(C=CC(=O)O)cc(OC)c1O` (stereo in doubt) [Sinapinic acid, sinapinic acid]: in experiment [1], the “EFC50 (effective concentration inhibiting TPO in 50%)” value was 25.42 ± 1.13 ^a µg/mL, the “Ki (TPO)” value is 45.92 ± 3.22 ^b µg/mL, the “Vmax (TPO)” value is on record as 149.25 ± 6.26 ^a ΔAU/min and the “Mode of Inhibition (TPO)” value was “Competitive”. Further, in experiment [2] (setting [3]), the “ABTS radical scavenging ability IC50” value turned out to be 84.33 µg/mL.
A word on the IC50: it is the concentration that gives 50% inhibition. Higher therefore signals weaker potency. As usually defined, the Ki is a measure of affinity in units of concentration, obtained from inhibition or displacement. Read a low Ki as a stronger hold on the target. For `O=c1cc(-c2ccc(O)cc2)oc2cc(O)cc(O)c12` [Apigenin, apigenin], in experiment [1], inhibition was half-maximal at 430 µM (IC50), affinity was put at a Ki of 1250 µM, the “Vmax (TPO)” value was 149.25 ± 5.12 ^a ΔAU/min and the “Mode of Inhibition (TPO)” value is reported as “Uncompetitive”. The “ABTS radical scavenging ability IC50” value in experiment [2] (pure chemical standards) is 0.406 ± 0.003 ^c mg/mL. Besides, the “ABTS radical scavenging ability IC50” value in experiment [2] (setting [3]) was 405.93 µg/mL.
On to `O.Oc1cc(O)c2c(c1)O[C@H](c1ccc(O)c(O)c1)[C@@H](O)C2` [Catechin, catechin], for which, in experiment [1], the “EFC50 (effective concentration inhibiting TPO in 50%)” value is 29.76 ± 2.05 ^b µg/mL, the “Ki (TPO)” value is on record as 33.42 ± 1.35 ^a µg/mL, the “Vmax (TPO)” value is 144.93 ± 4.33 ^a ΔAU/min and the “Mode of Inhibition (TPO)” value is on record as “Competitive”. For the same molecule, in experiment [2] (pure chemical standards), the “ABTS radical scavenging ability IC50” value was 0.078 ± 0.008 ^a mg/mL. The “ABTS radical scavenging ability IC50” value in experiment [2] (setting [3]) came to 78.37 µg/mL.
Take `O=c1c(O)c(-c2ccc(O)cc2)oc2cc(O)cc(O)c12` [Kaempferol, kaempferol]: in experiment [1], half-maximal inhibition (IC50) was put at 215 µM, affinity was put at a Ki of 653 µM, the “Vmax (TPO)” value is 192.31 ± 8.34 ^b ΔAU/min and the “Mode of Inhibition (TPO)” value is “Competitive”. Besides, in experiment [2] (pure chemical standards), the “ABTS radical scavenging ability IC50” value is recorded as 0.337 ± 0.002 ^b mg/mL.
